Laboratory results published in PubChem BioAssay (NCI).
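In this assay, cells in 96-well plates receive the compound at five concentrations for 48 hours. Endpoints are linearly interpolated between the surrounding concentrations. The concentration for full growth arrest is given as TGI.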

Legend:
Test in all cases: NCI tumour cell line growth inhibition, 48 h
M19-MEL melanoma = tested on: M19-MEL melanoma
LXFL 529 NSCLC = tested on: LXFL 529 NSCLC
DLD-1 colon = tested on: DLD-1 colon
SN12K1 renal = tested on: SN12K1 renal
HOP-18 NSCLC = tested on: HOP-18 NSCLC
P388/ADR leukemia = tested on: P388/ADR leukemia
P388 leukemia = tested on: P388 leukemia
SNB-78 CNS = tested on: SNB-78 CNS
DMS 273 small cell lung = tested on: DMS 273 small cell lung
DMS 114 small cell lung = tested on: DMS 114 small cell lung
RXF-631 renal = tested on: RXF-631 renal

Row | SMILES | TGI (M19-MEL melanoma) | TGI (LXFL 529 NSCLC) | TGI (DLD-1 colon) | TGI (SN12K1 renal) | TGI (HOP-18 NSCLC) | TGI (P388/ADR leukemia) | TGI (P388 leukemia) | TGI (SNB-78 CNS) | TGI (DMS 273 small cell lung) | TGI (DMS 114 small cell lung) | TGI (RXF-631 renal)
1 | CC(=O)Nc1ccc(C(=O)NN2C(=O)C(Cl)C2c2cccc([N+](=O)[O-])c2)cc1 (stereo unspecified) | > 100 µM | > 100 µM | > 100 µM |  |  |  |  |  |  |  | 
2 | CCOCC(=O)N(C)c1cccc2c3c(n(C)c12)CCCCC3 | > 100 µM |  | > 100 µM | > 100 µM | > 20.9 µM | > 100 µM | > 100 µM | > 100 µM | > 31.6 µM | > 100 µM | 
3 | Cn1c2[n+](c3nc(N)[nH]c(=O)c31)C1OC(C2)C(O)C1O (stereo unspecified) | > 100 µM | > 100 µM | > 100 µM |  | > 100 µM |  |  | > 100 µM | > 100 µM | > 100 µM | > 100 µM
4 | COc1cc(C2c3cc4c(cc3[C@@H](Nc3ccc(Oc5ccccc5)cc3)C3COC(=O)[C@H]23)OCO4)cc(OC)c1O (stereo partly specified) | > 100 µM |  | > 100 µM | > 100 µM | > 100 µM | 3.49 µM | 1.88 µM | > 100 µM |  | > 22.7 µM | 
5 | Nc1nnc(CCC(=O)Nc2cc(Cl)ccc2Cl)n1N | > 100 µM | > 100 µM | > 100 µM |  | > 100 µM |  |  | > 100 µM | > 100 µM | > 100 µM | > 100 µM
